# Laboratory results reported in patent US20100324132A1, “METHODS AND COMPOSITIONS FOR PROMOTING WOUND HEALING” (priority 2005, published 2010).
# Assays:
# Assay type in all cases: cell-based
# Enterococcus faecalis [1] = assay: Antibiotic resistance profile, disc diffusion; also: key: R = resistant; I = intermediate; S = sensitive; conditions: E. faecalis isolated from burn patients
# Staphylococcus aureus [2] = assay: Antibiotic resistance profile, disc diffusion; also: key: R = resistant; I = intermediate; S = sensitive; conditions: S. aureus isolated from burn patients
# Pseudomonas aeruginosa [3] = assay: Antibiotic resistance profile, disc diffusion; also: key: R = resistant; I = intermediate; S = sensitive; conditions: P. aeruginosa isolated from burn patients
# Staphylococcus aureus [4] = assay: MIC/MBC of Tris, EDTA, cocamidopropyl betaine and silver combinations, human burn isolates; conditions: S. aureus isolated from a human burn patient; x = multiple of the stock solution
# Pseudomonas aeruginosa [5] = assay: as above; conditions: P. aeruginosa isolated from a human burn patient; x = multiple of the stock solution
# [6] = system: Staphylococcus intermedius; assay: MIC/MBC of cocamidopropyl betaine, Tris-EDTA and their combination, dog isolates
# Procedure: (§1) The formulation was tested against Pseudomonas aeruginosa, Proteus mirabilis, Escherichia coli, Staphylococcus intermedius, Malessezia pachydermatis, and Candida albicans.
# Pseudomonas aeruginosa [7] = assay: as above
# Procedure: as §1
# Malassezia pachydermatis = assay: as above
# Procedure: as §1
# Candida albicans = assay: as above
# Procedure: as §1
# Escherichia coli = assay: as above
# Procedure: as §1
# Proteus mirabilis = assay: as above
# Procedure: as §1
# Aeromonas caviae = assay: MIC and FIC of EDTA and neomycin, Aeromonas isolated from ulcerated fish; conditions: A. caviae
# Procedure: (§2) This example describes a method for determining the FIC values set forth in Example 4. […] Agents and Chem. pp. 210-217 (1967); and Sparks et al., Vet. Res. Comm. 18:241-249 (1994). Each of the foregoing publications are incorporated herein by reference. […] Then 0.05 ml of an 18-hour old culture of a test organism, containing […] colony-forming units (CFU) ml, were added to each well. Controls for the culture and media were included in each plate. Plates were covered and incubated at 37° C. for 18-24 hours. A numerical score or Fractional Inhibitory Concentration (FIC) index was determined. The FIC index is equal to the sum of the values of FIC for the individual drugs: An FIC index greater than 1.0 indicated an antagonistic interaction, an FIC index of 1.0 indicated addition, and an FIC index of less than or equal to 0.5 indicated synergism between the two test agents.
# Aeromonas hydrophila = assay: as above; conditions: A. hydrophila
# Procedure: as §2
# Aeromonas sobria = assay: as above; conditions: A. sobria
# Procedure: as §2
# Pseudomonas aeruginosa [8] = assay: MIC/MBC and checkerboard of EDTA-Tris and neomycin; conditions: in 50 mM Tris
# Procedure: (§3) This example describes a method for determining the FIC values set forth in Example 4. […] Agents and Chem. pp. 210-217 (1967); and Sparks et al., Vet. Res. Comm. 18:241-249 (1994). Each of the foregoing publications are incorporated herein by reference.
# (§4) Then 0.05 ml of an 18-hour old culture of a test organism, containing […] colony-forming units (CFU) ml, were added to each well. Controls for the culture and media were included in each plate. Plates were covered and incubated at 37° C. for 18-24 hours.
# (§5) To generate isobolograms, FICs of the two test solutions were plotted individually on the x-axis and y-axis to determine the effect of combining the two test solutions on bacterial growth. A line that curves away from the zero point and the coordinates indicated antagonism. […] Goodman and Gilman, pp. 1085-1086 (Macmillan Publishing Co., New York, 1985); Sabath, L. D., Antimicrob. Agents and Chem. pp. 210-217 (1967) and incorporated herein by reference in their entireties.
# (§6) A numerical score or Fractional Inhibitory Concentration (FIC) index was determined. The FIC index is equal to the sum of the values of FIC for the individual drugs:
# (§7) An FIC index greater than 1.0 indicated an antagonistic interaction, an FIC index of 1.0 indicated addition, and an FIC index of less than or equal to 0.5 indicated synergism between the two test agents.
# (§8) The organisms of this study were isolated from human burn patients. They included strains of methicillin resistant Staphylococcus aureus, and vancomycin resistant strains of Pseudomonas aeruginosa and Enterococcus faecalis. The bacterial isolates were propagated in or on Brain Heart Infusion broth (BHI), Mueller-Hinton Broth (MHB), blood agar (BA), Mueller-Hinton agar (MBA), enterococcus agar (EA), or 2× nutrient agar (2× NA).
# (§9) 307 (pub: Am. Soc. Microbiol. Williams and Wilkins, Baltimore 1970), incorporated herein by reference in its entirety.
# Staphylococcus aureus [9] = assay: MIC/MBC and checkerboard of EDTA-Tris and neomycin; conditions: in 50 mM Tris
# Procedure: as §3, §4, §5, §6, §7, §8, §9
# Enterococcus faecalis [10] = assay: MIC/MBC and checkerboard of EDTA-Tris and neomycin; conditions: in 50 mM Tris
# Procedure: as §3, §4, §5, §6, §7, §8, §9
# [11] = S. intermedius from dogs, x = multiple of the 1x stock solution
# [12] = P. aeruginosa from dogs with otitis externa and pyoderma, x = multiple of the 1x stock solution
# [13] = M. pachydermatis from dogs, x = multiple of the 1x stock solution
# [14] = C. albicans from dogs, x = multiple of the 1x stock solution
# [15] = E. coli isolated from a dog with otitis externa, x = multiple of the 1x stock solution
# [16] = P. mirabilis from dogs, x = multiple of the 1x stock solution
molecule,measurement,setting,value
"NC[C@H]1O[C@H](O[C@H]2[C@H](O)[C@@H](O[C@H]3O[C@H](CO)[C@@H](O)[C@H](N)[C@H]3O)[C@H](N)C[C@@H]2N)[C@H](O)[C@@H](O)[C@@H]1O [K, kanamycin]",Antibiotic resistance profile,Enterococcus faecalis [1],R
same,Antibiotic resistance profile,Staphylococcus aureus [2],R
same,Antibiotic resistance profile,Pseudomonas aeruginosa [3],R
"CCn1cc(C(=O)O)c(=O)c2ccc(C)nc21 [NA, nalidixic acid]",Antibiotic resistance profile,Enterococcus faecalis [1],R
same,Antibiotic resistance profile,Staphylococcus aureus [2],R
same,Antibiotic resistance profile,Pseudomonas aeruginosa [3],R
"[H]/N=C(/N)N[C@H]1[C@H](O)[C@@H](O)[C@H](O[C@@H]2O[C@@H](C)[C@](O)(C=O)[C@H]2O[C@@H]2O[C@@H](CO)[C@H](O)[C@@H](O)[C@@H]2NC)[C@@H](N/C(N)=N\[H])[C@@H]1O [S, streptomycin]",Antibiotic resistance profile,Enterococcus faecalis [1],R
same,Antibiotic resistance profile,Staphylococcus aureus [2],S
same,Antibiotic resistance profile,Pseudomonas aeruginosa [3],R
"CN(C)[C@@H]1C(O)=C(C(N)=O)C(=O)[C@@]2(O)C(O)=C3C(=O)c4c(O)cccc4[C@@](C)(O)[C@H]3C[C@@H]12 [Te, tetracycline]",Antibiotic resistance profile,Enterococcus faecalis [1],R
same,Antibiotic resistance profile,Staphylococcus aureus [2],S
same,Antibiotic resistance profile,Pseudomonas aeruginosa [3],R
"CN[C@H](CC(C)C)C(=O)N[C@H]1C(=O)N[C@@H](CC(N)=O)C(=O)N[C@H]2C(=O)N[C@H]3C(=O)N[C@H](C(=O)N[C@H](C(=O)O)c4cc(O)cc(O)c4-c4cc3ccc4O)[C@H](O)c3ccc(c(Cl)c3)Oc3cc2cc(c3O[C@@H]2O[C@H](CO)[C@@H](O)[C@H](O)[C@H]2O[C@H]2C[C@](C)(N)[C@H](O)[C@H](C)O2)Oc2ccc(cc2Cl)[C@H]1O [Va, vancomycin]",Antibiotic resistance profile,Enterococcus faecalis [1],R
same,Antibiotic resistance profile,Staphylococcus aureus [2],S
same,Antibiotic resistance profile,Pseudomonas aeruginosa [3],R
cocamidopropyl betaine,MBC,Staphylococcus aureus [4],0.001x
same,MIC,Staphylococcus aureus [4],0.001x
same,MBC,Pseudomonas aeruginosa [5],0.5x
same,MIC,Pseudomonas aeruginosa [5],0.25x
same,MBC,[6]; S. intermedius,0.1% of stock solution
same,MIC,[6]; S. intermedius,0.1% of stock solution
same,MBC,[6]; [11],0.001x
same,MIC,[6]; [11],0.001x
same,MBC,Pseudomonas aeruginosa [7]; P. aeruginosa,50% of stock solution
same,MIC,Pseudomonas aeruginosa [7]; P. aeruginosa,25% of stock solution
same,MBC,Pseudomonas aeruginosa [7]; [12],0.5x
same,MIC,Pseudomonas aeruginosa [7]; [12],0.25x
same,MBC,Malassezia pachydermatis; M. pachydermatis,0.3% of stock solution
same,MIC,Malassezia pachydermatis; M. pachydermatis,0.1% of stock solution
same,MBC,Malassezia pachydermatis; [13],0.003x
same,MIC,Malassezia pachydermatis; [13],0.001x
same,MBC,Candida albicans; C. albicans,0.3% of stock solution
same,MIC,Candida albicans; C. albicans,0.1% of stock solution
same,MBC,Candida albicans; [14],0.003x
same,MIC,Candida albicans; [14],0.001x
same,MBC,Escherichia coli; E. coli,50% of stock solution
same,MIC,Escherichia coli; E. coli,25% of stock solution
same,MBC,Escherichia coli; [15],0.5x
same,MIC,Escherichia coli; [15],0.25x
same,MBC,Proteus mirabilis; P. mirabilis,50% of stock solution
same,MIC,Proteus mirabilis; P. mirabilis,25% of stock solution
same,MBC,Proteus mirabilis; [16],0.5x
same,MIC,Proteus mirabilis; [16],0.25x
gentamicin [GM],Antibiotic resistance profile,Enterococcus faecalis [1],R
same,Antibiotic resistance profile,Staphylococcus aureus [2],S
same,Antibiotic resistance profile,Pseudomonas aeruginosa [3],I
neomycin,Antibiotic resistance profile,Enterococcus faecalis [1],R
same,"MIC, neomycin alone",Aeromonas caviae,12.5 mg/L
same,"MIC, neomycin alone",Aeromonas hydrophila,200 mg/L
same,"MIC, neomycin alone",Aeromonas sobria,12.5 mg/L
same,Antibiotic resistance profile,Staphylococcus aureus [2],R
same,"MBC, individually administered",Pseudomonas aeruginosa [8],5000 mg/L
same,"MBC, individually administered",Staphylococcus aureus [9],3130 mg/L
same,"MBC, individually administered",Enterococcus faecalis [10],25000 mg/L
same,Antibiotic resistance profile,Pseudomonas aeruginosa [3],R
oxacillin/methicillin,Antibiotic resistance profile,Enterococcus faecalis [1],R
same,Antibiotic resistance profile,Staphylococcus aureus [2],R
same,Antibiotic resistance profile,Pseudomonas aeruginosa [3],R
